Measurements taken from patent US8754113B2, “Oxadiazole derivative having endothelial lipase inhibitory activity” (Shionogi & Co., Ltd., priority 2009, dated 2014).

These molecules were tested against human endothelial lipase (EL) (Homo sapiens (Human), UniProt Q9Y5X9) (assay: Human endothelial lipase (EL) inhibitory activity using human HDL (NEFA release)). Settings: human HDL 2 mg/ml substrate, 4-hour reaction at 37° C., NEFA readout; read-out: IC50 (50% inhibitory concentration), EL inhibitory activity.
human endothelial lipase (EL), sequence (Q9Y5X9 21-500): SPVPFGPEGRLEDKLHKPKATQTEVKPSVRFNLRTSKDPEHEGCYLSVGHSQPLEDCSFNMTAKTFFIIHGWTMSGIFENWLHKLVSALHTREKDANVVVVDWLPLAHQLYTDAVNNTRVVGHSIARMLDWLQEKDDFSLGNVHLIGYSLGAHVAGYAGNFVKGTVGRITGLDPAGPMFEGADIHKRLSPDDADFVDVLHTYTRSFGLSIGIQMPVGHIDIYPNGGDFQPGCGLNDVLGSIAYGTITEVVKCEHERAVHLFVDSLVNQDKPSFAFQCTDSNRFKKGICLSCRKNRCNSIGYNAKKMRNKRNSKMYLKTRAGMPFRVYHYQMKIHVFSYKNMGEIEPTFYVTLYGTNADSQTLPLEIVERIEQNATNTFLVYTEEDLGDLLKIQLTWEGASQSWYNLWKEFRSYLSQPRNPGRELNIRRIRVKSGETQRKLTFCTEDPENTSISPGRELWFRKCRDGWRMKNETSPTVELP
Format: biochemical
Procedure: Evaluation Method of Human Endothelial Lipase (EL) Inhibitory Activity Using Human High-Density Lipoprotein (HDL)
After the present compound dissolved in DMSO was added to become 0.5% DMSO to the reaction buffer consisting of 20 mM tris hydrochloric acid (pH7.4), bovine serum albumin (0.5%), calcium chloride (4 mM), sodium chloride (150 mM) and human HDL (2 mg/ml), the EL enzyme was added (total volume was 20 μl).
After 4-hour reaction at 37° C., non-esterified fatty acid (NEFA) generated from HDL by EL was measured with a commercially available assay kit and the amount of NEFA was used as an index of enzyme activity.
`N#CC1(NC(=O)Cc2nnc(Cc3nc4ccc(C5=CCOCC5)cc4s3)o2)CC1` [Compound I-3-48] was tested, and the IC50 was 8 nM.
In the case of `N#CCNC(=O)Cc1nnc(Cc2cnc3cc(-c4ccccc4)ccc3n2)o1` [Compound I-2-215], the IC50 is reported as 2500 nM.
`N#CC1(NC(=O)Cc2nnc(Cc3nc4ccc(-c5ccccn5)cc4s3)o2)CC1` [Compound I-3-1] gave an IC50 of 11 nM.
`COc1cc(-c2cnn(C)c2)cc2sc(Cc3nnc(CC(=O)NC4(C#N)CC4)o3)nc12` [Compound A-25] gave an IC50 of 42 nM.
For `N#CC1(NC(=O)Cc2nnc(Cc3nc4cnc(-c5ccccc5)cc4s3)o2)CC1` [Compound A-10], the IC50 was 8 nM.
For `O=C(O)CCc1nnc(Cc2nc3ccc(-c4ccccc4)cc3s2)o1` [Compound I-1-9], the IC50 was 260 nM.
For `O=C(Cc1nnc(Cc2nc3ccc(-c4ccc(F)cc4)cc3s2)o1)NC1(CO)CC1` [Compound I-3-6], the IC50 was 52 nM.
In the case of `O=C(Cc1nnc(Cc2nc3c(-c4ccccc4)cccc3s2)o1)NC1(CO)CC1` [Compound I-3-12], the IC50 is reported as 78 nM.
`O=C(Cc1nnc(Cc2nc3ccc(-c4ccccc4)cc3s2)o1)N1CC(O)C1` [Compound I-3-23] gave an IC50 of 400 nM.
In the case of `O=C(Cc1nnc(Cc2nc3ccc(-c4ccccc4)cc3s2)o1)N1CCOCC1` [Compound I-1-82], the IC50 is reported as 52 nM.
`N#CC1(NC(=O)Cc2nnc(Cc3nc4ccc(-c5ncc(F)cn5)cc4s3)o2)CC1` [Compound I-3-112] gave an IC50 of 44 nM.
In the case of `O=C(NCCc1nnc(Cc2nc3ccc(-c4ccccc4)cc3s2)o1)C1CC1` [Compound I-1-7], the IC50 is reported as 19 nM.
Work on `N#CCNC(=O)Cc1nnc(Cc2nc3c(Br)cccc3s2)o1` [Compound I-2-196] yielded an IC50 of 36 nM.
`N#CC1(NC(=O)Cc2nnc(Cc3nc4ccc(-c5ccc(Cl)cc5)c(F)c4s3)o2)CC1` [Compound A-13] gave an IC50 of 22 nM.
For `N#CC1(NC(=O)Cc2nnc(Cc3nc4ccc(-c5ccc(F)s5)cc4s3)o2)CC1` [Compound I-3-163], the IC50 was 9 nM.
In the case of `N#CC1(NC(=O)Cc2nnc(Cc3nc4ccc(-c5cc6ccccc6s5)cc4s3)o2)CC1` [Compound I-3-93], the IC50 is reported as 28 nM.
`CC(C#N)NC(=O)Cc1nnc(Cc2nc3ccc(-c4ccccc4)cc3s2)o1` (stereo not drawn) [Compound I-3-37] showed an IC50 of 2 nM.
With `N#CC1(NC(=O)Cc2nnc(Cc3nc4ccc(Cc5ccc(F)cc5)cc4s3)o2)CC1` [Compound I-3-41] the IC50 was 14 nM.
Work on `N#CCNC(=O)Cc1nnc(Cc2ccc(-c3ccccc3)cn2)o1` [Compound I-2-216] yielded an IC50 of 23000 nM.
With `N#CC1(NC(=O)Cc2nnc(Cc3nc4ccc(-c5ccc(Cl)s5)cc4s3)o2)CC1` [Compound I-3-56] the IC50 was 4 nM.
In the case of `N#CC1(NC(=O)Cc2nnc(Cc3nc4ccc(-c5ncccn5)cc4s3)o2)CC1` [Compound I-3-145], the IC50 is reported as 69 nM.
`O=C(O)Cc1nnc(Cc2nc3ccc(-c4ccccc4)cc3s2)o1` [Compound I-1-2] showed an IC50 of 120 nM.
`N#CC1(NC(=O)Cc2nnc(Cc3nc4c(-c5ccccc5)cccc4s3)o2)CC1` [Compound I-3-11] showed an IC50 of 9 nM.
`Cn1ccc(-c2ccc3nc(Cc4nnc(CC(=O)NC5(C#N)CC5)o4)sc3c2)n1` [Compound I-2-198] was tested, and the IC50 was 15 nM.
`N#CC1(NC(=O)Cc2nnc(Cc3nc4ccc(-c5ccccc5)c(Cl)c4s3)o2)CC1` [Compound A-17] gave an IC50 of 41 nM.
`N#CCNC(=O)Cc1nnc(Cc2nc3c(-c4ccccc4)cccc3s2)o1` [Compound I-2-197] showed an IC50 of 12 nM.
Molecule `O=C(Cc1nnc(Cc2nc3ccc(-c4ccccc4)cc3s2)o1)Nc1ccccc1` [Compound I-1-83] has an IC50 of 5 nM.
Work on `N#CCNC(=O)Cc1nnc(Cc2nc3ccc(-c4ccccc4)cc3s2)o1` [Compound I-1-3] yielded an IC50 of 26 nM.
Work on `N#CCNC(=O)Cc1nnc(Cc2ccc3cc(-c4ccccc4)ccc3n2)o1` [Compound I-2-204] yielded an IC50 of 190 nM.
With `Cc1ccc(-c2ccc3nc(Cc4nnc(CC(=O)NC5(C#N)CC5)o4)sc3c2F)s1` [Compound A-9] the IC50 was 11 nM.
`Cn1cc(-c2ccc3sc(Cc4nnc(CC(=O)NC5(C#N)CC5)o4)nc3c2)cn1` [Compound I-3-4] gave an IC50 of 4 nM.
Work on `O=C(Cc1nnc(Cc2nc3ccc(-c4ccccc4)cc3s2)o1)NCCO` [Compound I-1-31] yielded an IC50 of 83 nM.
Work on `N#CCCc1nnc(Cc2nc3ccc(-c4ccccc4)cc3s2)o1` [Compound I-1-27] yielded an IC50 of 85 nM.
`CS(=O)(=O)NCc1nnc(Cc2nc3ccc(-c4ccccc4)cc3s2)o1` [Compound I-1-23] showed an IC50 of 73 nM.
With `NS(=O)(=O)NCc1nnc(Cc2nc3ccc(-c4ccccc4)cc3s2)o1` [Compound I-1-85] the IC50 was 6 nM.
For `O=C(Cc1nnc(Cc2nc3ccc(-c4ccccc4)cc3s2)o1)NC1COC1` [Compound I-3-30], the IC50 was 46 nM.
`Cn1cc(-c2ccc3nc(Cc4nnc(CC(=O)NC5(C#N)CC5)o4)sc3c2Cl)cn1` [Compound A-21] was tested, and the IC50 was 65 nM.
In the case of `N#CCNC(=O)Cc1nnc(C(F)(F)c2nc3ccc(-c4ccccc4)cc3s2)o1` [Compound I-3-21], the IC50 is reported as 250 nM.
In the case of `Cc1ccc(-c2ccc3nc(Cc4nnc(CC(=O)NC5(C#N)CC5)o4)sc3n2)s1` [Compound A-14], the IC50 is reported as 160 nM.
Work on `N#CCNC(=O)Cc1nnc(Cc2nc3cc(-c4ccccc4)ccc3o2)o1` [Compound I-1-43] yielded an IC50 of 390 nM.
`Cn1cc(-c2ccc3nc(Cc4nnc(CC(=O)NC5(C#N)CC5)o4)sc3n2)cn1` [Compound A-19] was tested, and the IC50 was 110 nM.
Molecule `N#CC1(NC(=O)Cc2nnc(Cc3nc4ccc(-c5ccc(Cl)cn5)cc4s3)o2)CC1` [Compound I-3-146] has an IC50 of 27 nM.
